According to ChEMBL document CHEMBL5465560, “Selectivity Literature for EUbOPEN Chemogenomic Library” (2024):
Blank lines part the entries; values can stand above or below the molecule they belong to.

What was measured:
[1] = biological target: T1, Serine/threonine-protein kinase 17B (Homo sapiens) (UniProt O94768); test: Selectivity interaction (KinomeScan (DiscoverX)) EUB0001079a STK17B; details: at 1 µM
T1 sequence (whole entry): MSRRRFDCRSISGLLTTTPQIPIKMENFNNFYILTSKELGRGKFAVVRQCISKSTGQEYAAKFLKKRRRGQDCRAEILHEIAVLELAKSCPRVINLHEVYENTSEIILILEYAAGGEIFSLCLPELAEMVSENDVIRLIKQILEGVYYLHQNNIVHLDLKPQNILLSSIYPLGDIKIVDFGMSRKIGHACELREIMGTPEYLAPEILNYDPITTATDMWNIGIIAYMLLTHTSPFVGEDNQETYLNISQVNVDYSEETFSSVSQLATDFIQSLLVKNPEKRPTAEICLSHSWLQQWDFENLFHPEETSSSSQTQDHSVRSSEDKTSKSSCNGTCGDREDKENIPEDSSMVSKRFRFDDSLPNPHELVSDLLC

[2] = biological target: Serine/threonine-protein kinase PLK2 (Homo sapiens, UniProt Q9NYY3); test: Selectivity interaction (KinomeScan (DiscoverX)) EUB0000595a PLK2; details: at 10 µM
Serine/threonine-protein kinase PLK2, sequence (Q9NYY3 whole entry, looked up): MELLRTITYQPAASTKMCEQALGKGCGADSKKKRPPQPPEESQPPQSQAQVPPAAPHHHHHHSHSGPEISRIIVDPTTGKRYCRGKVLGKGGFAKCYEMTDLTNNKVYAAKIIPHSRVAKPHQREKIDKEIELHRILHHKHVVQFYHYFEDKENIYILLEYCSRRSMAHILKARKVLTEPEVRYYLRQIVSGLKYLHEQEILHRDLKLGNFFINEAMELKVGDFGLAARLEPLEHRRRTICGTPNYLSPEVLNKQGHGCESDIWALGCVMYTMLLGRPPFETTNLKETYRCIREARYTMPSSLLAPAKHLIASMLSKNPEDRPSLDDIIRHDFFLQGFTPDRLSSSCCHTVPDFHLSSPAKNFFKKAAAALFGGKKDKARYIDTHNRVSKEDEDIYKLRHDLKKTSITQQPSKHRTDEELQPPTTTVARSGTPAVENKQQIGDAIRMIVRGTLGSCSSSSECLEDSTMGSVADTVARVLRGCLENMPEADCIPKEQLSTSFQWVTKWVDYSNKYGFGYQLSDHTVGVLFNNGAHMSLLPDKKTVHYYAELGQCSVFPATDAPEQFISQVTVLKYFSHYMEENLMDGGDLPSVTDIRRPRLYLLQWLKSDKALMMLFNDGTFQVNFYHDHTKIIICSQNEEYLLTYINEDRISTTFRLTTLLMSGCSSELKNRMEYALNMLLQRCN

[3] = biological target: Activin receptor type-1-like (Homo sapiens) (UniProt P37023); test: Selectivity interaction (ProQinase) EUB0000171b ACVRL1
Activin receptor type-1-like (Homo sapiens), sequence (P37023 whole entry): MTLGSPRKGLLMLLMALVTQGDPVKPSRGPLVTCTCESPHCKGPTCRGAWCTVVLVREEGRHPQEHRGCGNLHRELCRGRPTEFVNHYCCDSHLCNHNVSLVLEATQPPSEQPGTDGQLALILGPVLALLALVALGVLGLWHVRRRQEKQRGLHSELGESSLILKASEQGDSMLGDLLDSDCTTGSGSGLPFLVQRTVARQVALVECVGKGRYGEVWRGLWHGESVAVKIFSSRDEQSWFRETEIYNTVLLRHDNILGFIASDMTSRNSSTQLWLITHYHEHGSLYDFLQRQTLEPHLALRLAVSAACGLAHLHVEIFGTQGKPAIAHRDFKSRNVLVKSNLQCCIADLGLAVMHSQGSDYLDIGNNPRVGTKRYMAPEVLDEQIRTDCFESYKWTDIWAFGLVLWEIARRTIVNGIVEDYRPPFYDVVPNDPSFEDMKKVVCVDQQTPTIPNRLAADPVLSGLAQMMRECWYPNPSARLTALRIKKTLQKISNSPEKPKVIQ

[4] = biological target: Serine/threonine-protein kinase pim-2 (Homo sapiens, UniProt Q9P1W9); test: Selectivity interaction (Enzymatic assay (Eurofins)) EUB0001049a PIM2
Serine/threonine-protein kinase pim-2, sequence (Q9P1W9 whole entry): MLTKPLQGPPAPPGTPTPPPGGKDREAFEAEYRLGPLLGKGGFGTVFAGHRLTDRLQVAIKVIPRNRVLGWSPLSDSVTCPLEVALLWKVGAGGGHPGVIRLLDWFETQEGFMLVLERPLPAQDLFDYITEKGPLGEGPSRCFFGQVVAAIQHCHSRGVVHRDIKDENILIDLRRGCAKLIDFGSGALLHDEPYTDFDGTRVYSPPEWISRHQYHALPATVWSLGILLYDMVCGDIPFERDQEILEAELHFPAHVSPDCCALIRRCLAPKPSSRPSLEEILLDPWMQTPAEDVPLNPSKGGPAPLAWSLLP

[5] = biological target: T2, Myosin light chain kinase family member 4 (Homo sapiens) (UniProt Q86YV6); test: Selectivity interaction (KinomeScan (DiscoverX)) EUB0000666a MYLK4; details: at 10 µM
T2 sequence (whole entry): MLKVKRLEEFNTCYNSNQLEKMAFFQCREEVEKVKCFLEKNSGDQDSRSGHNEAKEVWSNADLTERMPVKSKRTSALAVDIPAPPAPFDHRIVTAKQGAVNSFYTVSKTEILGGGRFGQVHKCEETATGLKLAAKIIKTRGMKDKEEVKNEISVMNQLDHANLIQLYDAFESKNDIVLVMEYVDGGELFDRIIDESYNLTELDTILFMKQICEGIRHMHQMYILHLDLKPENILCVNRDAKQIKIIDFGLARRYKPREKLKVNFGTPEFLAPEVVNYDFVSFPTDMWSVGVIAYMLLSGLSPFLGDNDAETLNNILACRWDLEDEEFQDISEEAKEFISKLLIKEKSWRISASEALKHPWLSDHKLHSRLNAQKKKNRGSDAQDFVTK

[6] = biological target: T3, Cyclin-G-associated kinase (Homo sapiens) (UniProt O14976); test: Selectivity interaction (KinomeScan (DiscoverX)) EUB0000092b GAK; details: at 10 µM
T3 sequence (whole entry): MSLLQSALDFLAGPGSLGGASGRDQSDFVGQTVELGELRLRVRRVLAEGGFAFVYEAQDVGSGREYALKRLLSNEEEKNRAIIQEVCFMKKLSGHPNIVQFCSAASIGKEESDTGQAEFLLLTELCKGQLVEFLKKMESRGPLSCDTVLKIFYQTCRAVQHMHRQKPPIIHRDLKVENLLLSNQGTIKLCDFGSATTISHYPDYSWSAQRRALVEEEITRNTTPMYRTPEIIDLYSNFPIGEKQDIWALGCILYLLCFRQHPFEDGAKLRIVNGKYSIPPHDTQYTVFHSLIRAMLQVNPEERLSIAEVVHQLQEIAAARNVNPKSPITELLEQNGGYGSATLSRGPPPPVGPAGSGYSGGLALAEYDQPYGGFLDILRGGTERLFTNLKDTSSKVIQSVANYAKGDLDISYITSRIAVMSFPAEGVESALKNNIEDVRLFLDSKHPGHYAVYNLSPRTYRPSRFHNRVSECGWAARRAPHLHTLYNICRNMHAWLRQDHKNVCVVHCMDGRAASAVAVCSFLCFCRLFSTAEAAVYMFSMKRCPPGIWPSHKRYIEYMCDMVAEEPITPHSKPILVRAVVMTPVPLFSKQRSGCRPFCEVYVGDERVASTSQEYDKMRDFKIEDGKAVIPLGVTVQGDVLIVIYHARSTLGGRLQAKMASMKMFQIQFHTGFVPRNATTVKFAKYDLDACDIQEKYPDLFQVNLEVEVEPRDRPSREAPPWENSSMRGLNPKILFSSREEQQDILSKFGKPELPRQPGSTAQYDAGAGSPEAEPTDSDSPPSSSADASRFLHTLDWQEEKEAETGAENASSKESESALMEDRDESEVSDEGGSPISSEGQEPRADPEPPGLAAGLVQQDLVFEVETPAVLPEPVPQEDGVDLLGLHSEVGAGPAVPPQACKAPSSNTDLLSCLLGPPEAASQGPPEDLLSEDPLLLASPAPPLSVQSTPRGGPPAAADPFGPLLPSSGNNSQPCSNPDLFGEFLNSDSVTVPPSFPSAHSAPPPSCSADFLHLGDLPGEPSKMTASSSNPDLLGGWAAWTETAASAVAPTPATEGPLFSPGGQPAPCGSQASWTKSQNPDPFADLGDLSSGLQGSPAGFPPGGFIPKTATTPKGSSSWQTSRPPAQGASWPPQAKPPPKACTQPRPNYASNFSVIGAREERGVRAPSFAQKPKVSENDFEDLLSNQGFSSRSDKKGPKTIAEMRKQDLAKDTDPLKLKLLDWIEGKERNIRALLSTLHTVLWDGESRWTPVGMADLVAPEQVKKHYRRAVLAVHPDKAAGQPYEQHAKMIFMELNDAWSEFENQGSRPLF

Structure (SMILES): Nc1cnc(N2CCc3cc(S(=O)(=O)Nc4c(F)cc(Cl)cc4F)cc(N4CCCC4=O)c32)nc1 [TP-020n]
% of control [1]: 100%

Structure (SMILES): COCC(=O)NC/C=C/c1ccc2ncnc(Nc3ccc(Oc4ccc(C)nc4)c(C)c3)c2c1 [CP-724714]
% of control [2]: 100%

% of control ([3]; at 1 µM): 74% | % of control ([3]; at 5 µM): 52%
Structure (SMILES): C=CC(=O)Nc1cccc(C(=O)Nc2ccc(Nc3cc(-c4[nH]c(SC)nc4C)ccn3)cc2)c1

Structure (SMILES): COc1cc(Nc2nc(C)cc(-c3cnn4nc(OC)ccc34)n2)cc(C(F)(F)F)c1
IC50 [4]: > 10 µM

Structure (SMILES): O=C(NOC[C@H](O)CO)c1ccc(F)c(F)c1Nc1ccc(I)cc1F
% of control [5]: 100%

Structure (SMILES): CCC(=O)N1CCN(c2ccc(-n3c(=O)ccc4cnc5ccc(-c6cnc7ccccc7c6)cc5c43)cc2C(F)(F)F)CC1
% of control [6]: 57%
